Data on one molecule can be found in paper PMC9072246 (Acta Pharmaceutica Sinica. B, 2021).

Usually AUC stands for concentration integrated over time. In general, Cmax refers to the highest concentration seen after dosing. The MRT is a mean duration of stay, worked out from the concentration-time curve. In general, Tmax refers to the time at which the peak concentration occurs. For orientation: half-life means the time needed for the level to fall by half in the phase considered. The low end stands for fast loss, the high end for slow loss.

Structures can show the parent of a compound that is named as a salt.

A short description of series [1]: Drug absorption in rat small intestine. Format: in vivo. Conditions: SD rats, intragastric 5 mg/kg DOX equivalent, 2 h, CLSM.
A short description of series [2]: In vivo pharmacokinetic after oral administration. The arrangement: species or system SD rats.
The nature of series [3]: In vitro drug release by dialysis method. Format: physicochemical. As to conditions: pH 7.4 PBS, after 3 h.

Take `COc1cccc2c1C(=O)c1c(O)c3c(c(O)c1C2=O)C[C@@](O)(C(=O)CO)C[C@@H]3O[C@H]1C[C@H](N)[C@H](O)[C@H](C)O1` [DOX, doxorubicin hydrochloride]: the “DOX fluorescence signal in small intestine tissue” value in series [1] was “almost no red fluorescence signal”. For the same molecule, the “Frel, relative bioavailability” value in series [2] (SD rats, oral, 30 mg/kg DOX equivalent, relative to DOX) is 100%. In addition, in series [2] (SD, rat, plasma, po, 30 mg/kg), the AUC was 4000 ± 20 ng·h/mL, the highest level (Cmax) was 160 ± 10 ng/mL, the MRT was 24.6 ± 0.34 h and the Tmax turned out to be 1 h. For the same molecule, in series [2] (SD, rat, plasma, po, 30 mg/kg), the concentration at 1 h is 160 ng/mL, the concentration at 8 h was 130 ng/mL and the half-life was 12.6 ± 0.58 h. Further, the “cumulative release amount of DOX” value in series [3] stood at 90%.
